From paper PMC12250129, “Exploring the Therapeutic Potential of ^177Lu-PSMA-617 in a Mouse Model of Prostate Cancer Bone Metastases” (International Journal of Molecular Sciences, 2025)

Key:
[1] = Radiochemical stability in human serum (iTLC); type: in vitro ADME
Protocol: A precursor amount of 50 nmol was labeled with Lutetium-177, achieving a radiochemical yield of over 99% and a molar activity of 25.5 GBq/μmol within 15 min at 95 °C. The radiochemical purity of ^177Lu-PSMA-617 (Rt = 7.47 min) exceeded 98%, as determined by radio-HPLC and iTLC analyses (Figure 1). To assess radiolytic stability, ^177Lu-PSMA-617 was incubated in human serum at 4, 25, and 37 °C for 1, 24, 48, and 72 h. […] However, after 72 h, less than 5% and 4% of free ^177Lu was detected at 4 °C and 25 °C, respectively. […] These findings are consistent with other studies. […] The ability to maintain radiolabeling over an extended period reinforces its viability for targeted radiopharmaceutical therapy and molecular imaging in oncology.
Radiolabeling was conducted as previously described. A total of 1 GBq of non-carrier added lutetium-177 (Isotopia Molecular Imaging, Petach Tikva, Israel) was mixed with 100 μL of a sodium acetate solution (0.4 M, pH 5.5), 1.25 μL of an ascorbic acid solution (20% w/w), and 5 μL of a PSMA-617 solution (10 mM, Ontores Biotechnology Co., Ltd., Hangzhou, China). The mixture solution was subjected to heating at a temperature of 95 °C while being placed on a shaker for 15 min. The labeling efficiency was measured using instant thin-layer chromatography (iTLC) on the glass microfiber chromatography paper impregnated with a silica gel (Agilent Technologies, Santa Clara, CA, USA), where 100 mM EDTA in 100 mM ammonium acetate acts as a mobile phase as described previously. The iTLC sheets were measured using a radioactive scanner (AR-2000 radio-TLC Imaging Scanner, Bioscan, Evreux, France). The labeling rate of >90% was acceptable as performed in the in vitro and in vivo studies. Radiochemical purity was also analyzed by high-performance liquid chromatography (HPLC) with a UV detector (220 nm) and a radio detector using a Zorbax SB-C18 column (Agilent Technologies, Santa Clara, CA, USA). The flow rate was 0.8 mL/min with the gradient mobile phase going from the 80% A buffer (0.1% TFA in water) and 20% B buffer (0.1% TFA in acetonitrile) to the 40% B buffer within 20 min. A sterile 0.9% sodium chloride solution was added before injections in mice. The radiochemical stability of ^177Lu-PSMA-617 in human serum up to 96 h at 4, 25, and 37 °C was tested by iTLC.

[2] = Absorbed radiation dose calculations (OLINDA/EXM), extrapolated from mouse data; design: species or system human; conditions: 70 kg male adult
Protocol: Radiation doses (mGy/GBq) for major human organs (male) were calculated using the OLINDA/EXM Version 1.1 software. The organ-specific radiation absorbed doses following the administration of ^177Lu-PSMA-617 to humans were estimated based on residence times derived from mouse data and are presented in Table 1. […] The overall effective dose was 0.127 mSv/MBq. These findings provide critical insights into the dosimetry profile of ^177Lu-PSMA-617, aiding in the assessment of its safety and therapeutic potential.
The absorbed radiation dose calculations were performed as previously reported. For the estimation of mean absorbed doses in humans, the relative organ mass scaling method was used. The calculated mean value of the percentage injected activity per gram of tissue (%IA/g) for the organs in mice was extrapolated to the uptake amount in the organs of a 70 kg adult using the following formula:[(%IA/gorgan)animal × (kgTB weight)animal] × (gorgan/kgTB weight)human = (%IA/organ)human
The extrapolated values (%IA) in human organs at 1, 4, 24, and 48 h were fitted with exponential biokinetic models and integrated to obtain the number of disintegrations in the source organs; this information was entered into the OLINDA/EXM computer program. The integrals (MBq-s) for 11 organs, including heart contents (blood), the heart, the liver, the spleen, the lung, the kidney, muscle, the brain, bone, the small intestine, and the remainder of the body, were evaluated and used for the dosimetry evaluation.

O=C([O-])CN1CCN(CC(=O)[O-])CCN(CC(=O)NCC2CCC(C(=O)N[C@@H](Cc3ccc4ccccc4c3)C(=O)NCCCC[C@H](NC(=O)N[C@@H](CCC(=O)O)C(=O)O)C(=O)O)CC2)CCN(CC(=O)[O-])CC1.[177Lu+3] (some centres unmarked) [^177Lu-PSMA-617]
free activity ([1]; human serum, 4 °C, after 2 h): 1.2% | free activity ([1]; human serum, 25 °C, after 2 h): less than 1.1% | free activity ([1]; human serum, after 48 h, at 4, 25 and 37 °C): no detectable free activity | free 177Lu ([1]; human serum, after 72 h, 4 °C): less than 5% | free 177Lu ([1]; human serum, after 72 h, 25 °C): < 4% | release of free activity ([1]; human serum, up to 72 h at 37 °C): without any release of free activity | free 177Lu ([1]; over a 72 h observation period, 37 °C): less than 5% | Estimated Dose ([2]; Adrenals): 8.15E−04 mSv/MBq | Estimated Dose ([2]; Brain): 3.54E−05 mSv/MBq | Estimated Dose ([2]; Breasts): 7.86E−03 mSv/MBq | Estimated Dose ([2]; Kidneys): 2.19E−04 mSv/MBq | Estimated Dose ([2]; LLI Wall): 2.01E−02 mSv/MBq | Estimated Dose ([2]; Liver): 5.81E−04 mSv/MBq | Estimated Dose ([2]; Lungs): 1.47E−03 mSv/MBq | Estimated Dose ([2]; Muscle): 6.33E−05 mSv/MBq | Estimated Dose ([2]; Osteogenic Cells): 4.98E−03 mSv/MBq | Estimated Dose ([2]; Pancreas): 8.27E−04 mSv/MBq | Estimated Dose ([2]; Red Marrow): 1.47E−02 mSv/MBq | Estimated Dose ([2]; Skin): 1.54E−03 mSv/MBq | Estimated Dose ([2]; Small Intestine): 8.52E−04 mSv/MBq | Estimated Dose ([2]; Spleen): 6.92E−05 mSv/MBq | Estimated Dose ([2]; Stomach Wall): 1.98E−02 mSv/MBq | Estimated Dose ([2]; Testes): 2.16E−02 mSv/MBq | Estimated Dose ([2]; Thymus): 8.01E−04 mSv/MBq | Estimated Dose ([2]; Thyroid): 8.08E−03 mSv/MBq | Estimated Dose ([2]; ULI Wall): 8.45E−04 mSv/MBq | Estimated Dose ([2]; Urinary Bladder Wall): 8.32E−03 mSv/MBq | Estimated Dose ([2]; Uterus): 8.48E−04 mSv/MBq | Effective Dose ([2]; overall effective dose): 1.27E−01 mSv/MBq
